{
  "source": "patent US12448372B2",
  "about": "“Class of triaromatic compounds targeting bifunctional phosphorylation site of STAT3 and applications thereof” (SHANGHAI YUYAO BIOTECH LTD., priority 2019, dated 2025)",
  "key": {"PC-9": {"tested_on": "PC-9", "experiment": "Cell proliferation by MTS method, PC-9", "format": "cell-based", "details": "Homo sapiens, Lung Cancer", "excerpt": "(§1) (2) Detection of Cell Proliferation by MTS Method\n(§2) The MTS assay is a method for indirectly determining the number of living cells via colourimetric method. MTS is a newly synthesised tetrazole compound that reflects cell viability, which can be reduced by succinate dehydrogenase in the mitochondria of living cells to an orange-coloured formazan with an absorbance of the reduced product measured at 490 nm being in proportion to the number of living cells, thus reflecting the cell viability. This assay can be used to evaluate the effect of the compound on the proliferation of pancreatic cancer cells, thereby determining the inhibitory effect of the compound on the proliferation of pancreatic cancer cells and to calculate the IC^50. Each cells were inoculated uniformly into a 96-well plate at a density of 1-20×10^3 cells/well, 100 μL per well, and placed in a constant temperature incubator until the cells adhered to the wall. […] Under light-proof conditions, MTS was added and well mixed, the mixture was placed in a constant temperature incubator at 37° C., and the light absorption value were measured using an enzyme marker at 490 nm and the experiment was repeated for three times, IC50 was calculated with GraphPad5 Prism software."}, "MKN45": {"tested_on": "MKN45", "experiment": "Cell proliferation by MTS method, MKN45", "format": "cell-based", "details": "Homo sapiens, MKN-45", "how_it_was_run": "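Seed 1-20×10^3 cells/well; adhere; compound dilutions vs medium control, 24-96 h. MTS, dark, 37° C.; A490. n=3; IC50.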"}, "[1]": {"tested_on": "Human pancreatic cancer cells (ASPC-1)", "experiment": "In situ growth metastasis model of pancreatic cancer, ASPC-1 in nude mice", "format": "in vivo", "details": "in situ growth metastasis model (ASPC-1), nude mice, 5, 10, 20 mg/kg by gavage once a day, FIG. 4D", "protocol": "(2) In situ growth metastasis model of pancreatic cancer. Human pancreatic cancer cells (ASPC-1) were used to bear tumors in the pancreas of age-appropriate nude mice, 6 or more mice in each group. One week after injection of tumour cells, all mice were randomly divided to the control group, WB737-5 mg/kg low dose group, 10 mg/kg medium dose group, 20 mg/kg high dose group and positive compound group. Different doses of WB737 or the positive compound were administered by gavage, and mice of control group were administered the same dose of solvent orally […], dosing once a day. During the experiment, the time and number of mice died due to pancreatic cancer metastasis were counted, and the results of the experiment were counted and survival curves were plotted."}, "[2]": {"tested_on": "mouse pancreatic cancer cells Pan02-Luci", "experiment": "Pancreatic cancer liver metastasis model, Pan02-Luci in C57BL/6 mice", "format": "in vivo", "excerpt": "(1) Animal Experiment on Pancreatic Cancer Liver Metastasis\nPancreatic cancer is a malignant tumor of the gastrointestinal tract, with rapidly progressing condition, high degree of progression, and very limited clinical treatments, and metastasis is very likely to occur in the terminal stage, among which liver metastasis is the most common, and the occurrence of liver metastasis is also an important manifestation of the seriousness of the disease. In the present invention, by injecting pancreatic cancer cells into the spleen, the tumour cells will directed metastasize to the liver, thereby simulating the occurrence and metastasis process of pancreatic cancer liver metastasis. […] Fluorescence detection of mice was performed using the Small Animal In vivo Imaging Instrument (IVIS), according to the obtained fluorescence values, the mice were divided into control group, WB737 5 mg/kg/d low dose group, 10 mg/kg/d medium dose group and 20 mg/kg/d high dose group, and IACS-010759-10 mg/kg positive compound group, and the mean fluorescence values of each group were ensured to be consistent. […] Metastasiss were recorded using small animal in vivo imaging instrument (IVIS) during the experiment, and body weight of the mice was measured every 3-4 days. […]"}, "PLC/PRF-5": {"tested_on": "PLC/PRF-5", "experiment": "Cell proliferation by MTS method, PLC/PRF-5", "format": "cell-based", "details": "Homo sapiens, Liver Cancer", "excerpt": "as §1, §2"}, "HepG2": {"tested_on": "HepG2", "experiment": "Cell proliferation by MTS method, HepG2", "format": "cell-based", "details": "Homo sapiens, Liver Cancer", "excerpt": "as §1, §2"}, "BXPC3": {"tested_on": "BXPC3", "experiment": "Cell proliferation by MTS method, BXPC3", "format": "cell-based", "details": "Homo sapiens, BXPC-3, Pancreatic Cancer", "excerpt": "as §1, §2"}, "[3]": {"tested_on": "human pancreatic cancer cells MIAPACA-2", "experiment": "Subcutaneous tumor-bearing experiment in nude mice, MIAPACA-2", "procedure": "(1) Subcutaneous Tumor-Bearing Experiment in Nude Mice\nSubcutaneous tumor-bearing experiment, i. e. tumour cells were injected subcutaneously into nude mice, and the tumour cells absorbed nutrients from the mice and rapidly proliferated to form tumours.\nTumour volume and mouse weight were measured every four days, and tumour volume was calculated according to the formula of volume=length×width^2×0.52. After 3 weeks post-administration, mice were sacrificed and subcutaneous tumours were peeled off, weighed and photographed."}, "[4]": {"experiment": "Acute toxicological experiments, survival of normal mice", "details": "dose of 80 mg/kg, FIG. 5E"}, "HCCC9810": {"tested_on": "HCCC9810", "experiment": "Cell proliferation by MTS method, HCCC9810", "format": "cell-based", "details": "Liver Cancer", "excerpt": "as §1, §2"}, "BGC823": {"tested_on": "BGC823", "experiment": "Cell proliferation by MTS method, BGC823", "format": "cell-based", "details": "Homo sapiens, BGC-823, gastric Cancer", "excerpt": "as §1, §2"}, "H23": {"tested_on": "H23", "experiment": "Cell proliferation by MTS method, H23", "format": "cell-based", "details": "Homo sapiens, NCI-H23, Lung Cancer", "excerpt": "as §1, §2"}},
  "note": "“Also recorded” adds a separate entry of the source. Where two headings read alike, the source gives them in different places.",
  "data": [
    {"smiles": "Cn1c(C(=O)N2CCN(Cc3ccc(OCC(F)(F)F)cc3)CC2)cc2ccc(Oc3cnc(-c4nc(-c5ccc(C(F)(F)F)cc5)no4)cn3)cc21", "note": "[Example 6, (6-((5-(3-(4-(trifluoromethyl)phenyl)-1,2,4-oxadiazol-5-yl)pyrazin-2-yl)oxy)1-methyl-1H-indol-2-yl)(4-(4-(2,2,2-trifluoroethoxy)benzyl)piperazin-1-yl)methanone]", "values": [
      {"measurement": "IC50", "setting": "PC-9", "value": 21.3, "unit": "nM"},
      {"measurement": "IC50", "setting": "MKN45; Table 1, MKN45, read-out: Tumour cell proliferative activity/IC50(nM) gastric Cancer MKN45", "value": "< 10", "unit": "nM"},
      {"measurement": "IC50", "setting": "MKN45; gastric Cancer, MKN45, read-out: IC50", "value": 1.6, "unit": "nM"},
      {"measurement": "survival of mice", "setting": "[1]", "value": "significantly prolongs the survival of mice"},
      {"measurement": "liver metastasis of tumours", "setting": "[2]; Pan02-Luci injected into spleen, C57BL/6 mice, 5, 10, 20 mg/kg/d by gavage, FIG. 4A/4B", "value": "dose-dependently inhibits liver metastasis of tumours"},
      {"measurement": "survival of mice", "setting": "[2]; pancreatic tumour liver metastasis model (Pan02), 5, 10, 20 mg/kg by gavage once a day, FIG. 4C", "value": "significantly prolongs the survival of mice"},
      {"measurement": "IC50", "setting": "PLC/PRF-5", "value": 1.8, "unit": "nM"},
      {"measurement": "IC50", "setting": "HepG2", "value": 12, "unit": "nM"},
      {"measurement": "IC50", "setting": "BXPC3", "value": 7.6, "unit": "nM"},
      {"measurement": "effect on the body weight of mice", "setting": "[3]; MIAPACA-2 subcutaneous model, gavage, WB737 5-20 mg/kg, IACS-010759 10 mg/kg, FIG. 3D/5D", "value": "no significant effect on the body weight of mice; also recorded: good tolerability"},
      {"measurement": "tumor growth (tumor volume and tumor weight)", "setting": "[3]; MIAPACA-2 subcutaneous, BALB/c-nude mice, 5, 10, 20 mg/kg by gavage, 3 weeks, FIG. 3", "value": "significantly inhibits the growth of pancreatic tumour"},
      {"measurement": "mortality of normal mice", "setting": "[4]", "value": "no mice died"},
      {"measurement": "IC50", "setting": "HCCC9810", "value": 73.3, "unit": "nM"},
      {"measurement": "IC50", "setting": "BGC823", "value": "6.1 ± 0.9", "unit": "nM"},
      {"measurement": "IC50", "setting": "H23", "value": 2.9, "unit": "nM"}
    ]}
  ]
}
